Assay results as given in US20210015874A1, “USE OF BIO-TRANSFORMED BEAR BILE POWDER IN PREPARATION OF ANTI-INFLAMMATORY DRUGS” (SHANGHAI KAIBAO PHARMACEUTICAL CO., LTD., priority 2019, published 2021).

Tested on: carrageenan-induced inflammation model
Assay: plantar swelling of carrageenan-induced inflammation model in rats
Format: in vivo, SD rats
Conditions: intragastric once, 0.007 g/kg
Protocol: Animal germline: specific pathogen-free (SPF) male SD rats, aged 6-week-old, weighing between 132 g and 199 g when received, and weighing between 152 g and 225 g when drugs are administered to rats, were purchased from Hunan Slake Jingda laboratory Animal Co., Ltd. The laboratory animal production license: SCXK (Xiang) 2016-0002 (valid until Sep. 29, 2021), issued by China Hunan Provincial Science & Technology Department. The laboratory animal quality certificate No.: 43004700060779.
Method for grouping animals: after the quarantine was over, rats that have passed the quarantine inspection were selected for experiments. Groups were randomly assigned on the basis of body weight and divided into 9 groups with 10 rats per group. The 9 groups were as follows: a negative control group, a model group, a group of rats treated with low-dose bio-transformed bear bile powder, a group of rats treated with middle-dose bio-transformed bear bile powder, a group of rats treated with high-dose bio-transformed bear bile powder, a group of rats treated with low-dose natural bear bile powder, a group of rats treated with middle-dose natural bear bile powder, a group of rats treated with high-dose natural bear bile powder, and a positive control group.
Dose and group design for the experiment: a total of 9 groups are contemplated, that is, negative control group (blank control group), a model group, a group of rats treated with low-dose bio-transformed bear bile powder, a group of rats treated with middle-dose bio-transformed bear bile powder, a group of rats treated with high-dose bio-transformed bear bile powder, a group of rats treated with low-dose natural bear bile powder, a group of rats treated with middle-dose natural bear bile powder, a group of rats treated with high-dose natural bear bile powder, and a positive control group (a group of rats treated with indomethacin).
Administration route, administration frequency, and administration period of the test substance and the control: each of them was administered intragastrically, the administration volume was 10 mL/kg, and each group was administered once.
Experimental method: SD male rats that had passed the quarantine inspection were selected for experiments. Groups were divided into 9 groups with 10 male rats per group. The 9 groups were as follows: a negative control group, a model group, a group of rats treated with low-dose bio-transformed bear bile powder, a group of rats treated with middle-dose bio-transformed bear bile powder, a group of rats treated with high-dose bio-transformed bear bile powder, a group of rats treated with low-dose natural bear bile powder, a group of rats treated with middle-dose natural bear bile powder, a group of rats treated with high-dose natural bear bile powder, and a positive control indomethacin group. Before molding, each animal was scored at the ankle joint of the right hind foot, and the volume of the right hind foot was measured with a plantar volume measuring instrument, and it was measured continuously 2 times, wherein the average value obtained from the two measurements was taken as a base volume.
Except for the blank control group, the animals in the remaining groups were injected with 1% by weight of carrageenan suspension at the right hind foot metatarsal palmar fascia, the volume for each rat was 0.1 mL; animals in the blank control group were injected with an equal volume of normal saline; corresponding drugs were administered intragastrically immediately after an injection of carrageenan. The plantar volume of the right hind foot of each group of animals was measured at 1 h, 2 h, 3 h, 4 h, 5 h, and 6 h after injection, and was measured twice consecutively, and the average value obtained from the two measurements was taken as the plantar volume after modeling. The plantar swelling and the plantar swelling inhibition rate were calculated according to the plantar volume measured at different time points after inflammation was induced. […]

Compound: COc1ccc2c(c1)c(CC(=O)O)c(C)n2C(=O)c1ccc(Cl)cc1 [Positive control, indomethacin]
- Plantar swelling 1 h (1 h after carrageenan): 0.21 ± 0.14 mL
- Plantar swelling 2 h (2 h after carrageenan): 0.25 ± 0.16 mL
- Plantar swelling 3 h (3 h after carrageenan): 0.29 ± 0.15 mL
- Plantar swelling 4 h (4 h after carrageenan): 0.15 ± 0.12 mL
- Plantar swelling 5 h (5 h after carrageenan): 0.19 ± 0.09 mL
- Plantar swelling 6 h (6 h after carrageenan): 0.17 ± 0.10 mL
